Experimental data: ChEMBL document CHEMBL1136342, “X-ray structures of two xanthine inhibitors bound to PEPCK and N-3 modifications of substituted 1,8-dibenzylxanthines” (Bioorg Med Chem Lett, 2003)

Test: Binding affinity against phosphoenolpyruvate carboxykinase (PEPCK) using isothermal titration calorimetry(ITC)

| Ki [nM] | Structure (SMILES) |
| --- | --- |
| 200 | CC(=O)Nc1ccc(Cc2nc3c(=O)n(Cc4ccccc4F)c(=O)n(CCCC(=O)O)c3[nH]2)cc1 |

Test: Inhibition of human phosphoenolpyruvate carboxykinase (PEPCK).

| IC50 [nM] | Structure (SMILES) |
| --- | --- |
| 2110 | CCCCn1c(=O)n(Cc2ccccc2F)c(=O)c2[nH]c(Cc3ccc(NC(C)=O)cc3)nc21 |
| 2850 | CC(=O)Nc1ccc(Cc2nc3c(=O)n(Cc4ccccc4F)c(=O)n(CCCCO)c3[nH]2)cc1 |
| 5450 | CC(=O)Nc1ccc(Cc2nc3c(=O)n(Cc4ccccc4F)c(=O)n(CCCO)c3[nH]2)cc1 |
| 2000 | CC(=O)Nc1ccc(Cc2nc3c(=O)n(Cc4ccccc4F)c(=O)n(CCC(=O)O)c3[nH]2)cc1 |
| 5700 | CC(=O)Nc1ccc(Cc2nc3c(=O)n(Cc4ccccc4F)c(=O)n(CC4CCCO4)c3[nH]2)cc1 (stereo unspecified) |
| 2000 | CC(=O)Nc1ccc(Cc2nc3c(=O)n(Cc4ccccc4F)c(=O)n(CC4CC4(CO)CO)c3[nH]2)cc1 (stereo unspecified) |
| 3050 | CC(=O)Nc1ccc(Cc2nc3c(=O)n(Cc4ccccc4F)c(=O)n(CC4CCCC4)c3[nH]2)cc1 |
| 2020 | CC(=O)Nc1ccc(Cc2nc3c([nH]2)c(=O)n(Cc2ccccc2F)c(=O)n3CC(C)C)cc1 |
| 1490 | CCCn1c(=O)n(Cc2ccccc2F)c(=O)c2[nH]c(Cc3ccc(NC(C)=O)cc3)nc21 |
| 6600 | CC(=O)Nc1ccc(Cc2nc3c(=O)n(Cc4ccccc4F)c(=O)n(CCCC(N)=O)c3[nH]2)cc1 |
| 4500 | CC(=O)Nc1ccc(Cc2nc3c(=O)n(Cc4ccccc4F)c(=O)n(Cc4ccoc4)c3[nH]2)cc1 |
| 8900 | CCCCCCn1c(=O)n(Cc2ccccc2F)c(=O)c2[nH]c(Cc3ccc(NC(C)=O)cc3)nc21 |
| 3000 | COC(=O)[C@H]1CC1Cn1c(=O)n(Cc2ccccc2F)c(=O)c2[nH]c(Cc3ccc(NC(C)=O)cc3)nc21 (stereo partly specified) |
| 1950 | CC(=O)Nc1ccc(Cc2nc3c(=O)n(Cc4ccccc4F)c(=O)n(CCCC(=O)O)c3[nH]2)cc1 |
| 2270 | CC(=O)Nc1ccc(Cc2nc3c(=O)n(Cc4ccccc4F)c(=O)n(CC4C[C@@H]4CO)c3[nH]2)cc1 (stereo partly specified) |
| 690 | CC(=O)Nc1ccc(Cc2nc3c([nH]2)c(=O)n(Cc2ccccc2F)c(=O)n3CC2CC2)cc1 |
| 1180 | CC(=O)Nc1ccc(Cc2nc3c(=O)n(Cc4ccccc4F)c(=O)n(CC4CCC4)c3[nH]2)cc1 |
| 1820 | CC(=O)Nc1ccc(Cc2nc3c([nH]2)c(=O)n(Cc2ccccc2F)c(=O)n3CC2C[C@@H]2C)cc1 (stereo partly specified) |
| 4500 | CC(=O)Nc1ccc(Cc2nc3c(=O)n(Cc4ccccc4F)c(=O)n(CC4CCCCO4)c3[nH]2)cc1 (stereo unspecified) |
| 560 | CC(=O)Nc1ccc(Cc2nc3c(=O)n(Cc4ccccc4F)c(=O)n(CC4C[C@@H]4C(=O)O)c3[nH]2)cc1 (stereo partly specified) |
